# Data reported in ChEMBL document CHEMBL1201862, “PubChem BioAssay data set” (2004).
#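 Each compound was tested at five concentrations against cells in 96-well plates for 48 hours. Here, GI50 denotes the concentration required for 50% inhibition of growth.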 Calls of active or inactive are those of the source. Cut-off read from the data, not from the text of the source: active = GI50 up to about 1.1 µM and inactive = higher.
# Columns and labels:
# Test in all cases: DTP human tumour cell line panel, 48 h
# A549 = system: A549
# ACHN = system: ACHN
# CAKI-1 = system: CAKI-1
# DU-145 = system: DU-145
# EKVX = system: EKVX
# HCT-116 = system: HCT-116
# HCT-15 = system: HCT-15
# HOP-92 = system: HOP-92
# HT-29 = system: HT-29
# IGROV-1 = system: IGROV-1
# KM12 = system: KM12
# M14 = system: M14
# MDA-MB-231 = system: MDA-MB-231
# MDA-MB-435 = system: MDA-MB-435
# MDA-N = system: MDA-N
# NCI-H226 = system: NCI-H226
# NCI-H23 = system: NCI-H23
# NCI/ADR-RES = system: NCI/ADR-RES
# OVCAR-3 = system: OVCAR-3
# OVCAR-4 = system: OVCAR-4
# OVCAR-5 = system: OVCAR-5
# OVCAR-8 = system: OVCAR-8
# PC-3 = system: PC-3
# RXF 393 = system: RXF 393
# SF-268 = system: SF-268
# SF-295 = system: SF-295
# SF-539 = system: SF-539
# SK-MEL-5 = system: SK-MEL-5
# SN12C = system: SN12C
# SNB-19 = system: SNB-19
# SNB-75 = system: SNB-75
# SW-620 = system: SW-620
# TK-10 = system: TK-10
# U-251 = system: U-251
# UO-31 = system: UO-31
# 786-0 = system: 786-0
# A498 = system: A498
# CCRF-CEM = system: CCRF-CEM
# COLO 205 = system: COLO 205
# HCC 2998 = system: HCC 2998
# HL-60 = system: HL-60
# HOP-62 = system: HOP-62
# Hs-578T = system: Hs-578T
# LOX IMVI = system: LOX IMVI
# MCF7 = system: MCF7
# MOLT-4 = system: MOLT-4
# Malme-3M = system: Malme-3M
# NCI-H460 = system: NCI-H460
# NCI-H522 = system: NCI-H522
# RPMI-8226 = system: RPMI-8226
# SK-MEL-28 = system: SK-MEL-28
# SK-MEL-2 = system: SK-MEL-2
# SK-OV-3 = system: SK-OV-3
# SR = system: SR
# T47D = system: T47D
# UACC-257 = system: UACC-257
# UACC-62 = system: UACC-62
# K562 = system: K562
smiles,measurement,setting,value
CC1(C)CC(=O)C2=C(C1)OC1=C(C(=O)CC(C)(C)C1)C2CC(c1ccccc1)c1ccc(O)c(O)c1O (stereo not drawn),GI50,A549,3.73 µM (inactive)
same,GI50,ACHN,> 10 µM (inactive)
same,GI50,CAKI-1,5.11 µM (inactive)
same,GI50,DU-145,> 10 µM (inactive)
same,GI50,EKVX,> 10 µM (inactive)
same,GI50,HCT-116,8.81 µM (inactive)
same,GI50,HCT-15,4.18 µM
same,GI50,HOP-92,5.18 µM (inactive)
same,GI50,HT-29,3.04 µM (inactive)
same,GI50,IGROV-1,> 10 µM (inactive)
same,GI50,KM12,3.41 µM (inactive)
same,GI50,M14,9.91 µM (inactive)
same,GI50,MDA-MB-231,8.91 µM (inactive)
same,GI50,MDA-MB-435,8.13 µM (inactive)
same,GI50,MDA-N,> 10 µM (inactive)
same,GI50,NCI-H226,> 10 µM (inactive)
same,GI50,NCI-H23,5.9 µM (inactive)
same,GI50,NCI/ADR-RES,> 10 µM (inactive)
same,GI50,OVCAR-3,3.54 µM (inactive)
same,GI50,OVCAR-4,6.38 µM (inactive)
same,GI50,OVCAR-5,> 10 µM (inactive)
same,GI50,OVCAR-8,> 10 µM (inactive)
same,GI50,PC-3,2.87 µM (inactive)
same,GI50,RXF 393,> 10 µM (inactive)
same,GI50,SF-268,> 10 µM (inactive)
same,GI50,SF-295,3.96 µM (inactive)
same,GI50,SF-539,> 10 µM (inactive)
same,GI50,SK-MEL-5,5.68 µM (inactive)
same,GI50,SN12C,> 10 µM (inactive)
same,GI50,SNB-19,> 10 µM (inactive)
same,GI50,SNB-75,3.05 µM (inactive)
same,GI50,SW-620,3.36 µM (inactive)
same,GI50,TK-10,> 10 µM (inactive)
same,GI50,U-251,> 10 µM (inactive)
same,GI50,UO-31,> 10 µM (inactive)
O=C(CSCC(=O)N/N=C\c1ccc(F)cc1F)N/N=C\c1ccc(F)cc1F,GI50,786-0,> 100 µM (inactive)
same,GI50,A498,> 100 µM (inactive)
same,GI50,A549,> 100 µM (inactive)
same,GI50,ACHN,> 100 µM (inactive)
same,GI50,CAKI-1,> 100 µM (inactive)
same,GI50,CCRF-CEM,> 100 µM (inactive)
same,GI50,COLO 205,> 100 µM (inactive)
same,GI50,DU-145,> 100 µM (inactive)
same,GI50,EKVX,> 100 µM (inactive)
same,GI50,HCC 2998,> 100 µM (inactive)
same,GI50,HCT-116,> 100 µM (inactive)
same,GI50,HCT-15,> 100 µM
same,GI50,HL-60,> 100 µM (inactive)
same,GI50,HOP-62,> 100 µM (inactive)
same,GI50,HOP-92,> 100 µM (inactive)
same,GI50,HT-29,> 100 µM (inactive)
same,GI50,Hs-578T,> 100 µM (inactive)
same,GI50,IGROV-1,> 100 µM (inactive)
same,GI50,KM12,> 100 µM (inactive)
same,GI50,LOX IMVI,> 100 µM (inactive)
same,GI50,M14,> 100 µM (inactive)
same,GI50,MCF7,> 100 µM (inactive)
same,GI50,MDA-MB-231,> 100 µM (inactive)
same,GI50,MDA-MB-435,> 100 µM (inactive)
same,GI50,MOLT-4,> 100 µM (inactive)
same,GI50,Malme-3M,> 100 µM (inactive)
same,GI50,NCI-H226,> 100 µM (inactive)
same,GI50,NCI-H23,> 100 µM (inactive)
same,GI50,NCI-H460,> 100 µM (inactive)
same,GI50,NCI-H522,> 100 µM (inactive)
same,GI50,NCI/ADR-RES,> 100 µM (inactive)
same,GI50,OVCAR-3,> 100 µM (inactive)
same,GI50,OVCAR-4,> 100 µM (inactive)
same,GI50,OVCAR-8,> 100 µM (inactive)
same,GI50,RPMI-8226,> 100 µM (inactive)
same,GI50,RXF 393,> 100 µM (inactive)
same,GI50,SF-268,> 100 µM (inactive)
same,GI50,SF-295,> 100 µM (inactive)
same,GI50,SF-539,> 100 µM (inactive)
same,GI50,SK-MEL-28,> 100 µM (inactive)
same,GI50,SK-MEL-2,> 100 µM (inactive)
same,GI50,SK-MEL-5,> 100 µM (inactive)
same,GI50,SK-OV-3,> 100 µM (inactive)
same,GI50,SN12C,> 100 µM (inactive)
same,GI50,SNB-19,> 100 µM (inactive)
same,GI50,SNB-75,> 100 µM (inactive)
same,GI50,SR,> 100 µM (inactive)
same,GI50,SW-620,> 100 µM (inactive)
same,GI50,T47D,> 100 µM (inactive)
same,GI50,TK-10,> 100 µM (inactive)
same,GI50,U-251,> 100 µM (inactive)
same,GI50,UACC-257,> 100 µM (inactive)
same,GI50,UACC-62,> 100 µM (inactive)
same,GI50,UO-31,> 100 µM (inactive)
CC(=O)OI1NC(=O)c2ccccc21,GI50,786-0,> 100 µM (inactive)
same,GI50,A498,> 100 µM (inactive)
same,GI50,A549,> 100 µM (inactive)
same,GI50,ACHN,> 100 µM (inactive)
same,GI50,CCRF-CEM,76.7 µM (inactive)
same,GI50,COLO 205,> 100 µM (inactive)
same,GI50,DU-145,> 100 µM (inactive)
same,GI50,EKVX,> 100 µM (inactive)
same,GI50,HCT-116,> 100 µM (inactive)
same,GI50,HCT-15,> 100 µM
same,GI50,HL-60,> 100 µM (inactive)
same,GI50,HOP-62,> 100 µM (inactive)
same,GI50,HOP-92,> 100 µM (inactive)
same,GI50,HT-29,> 100 µM (inactive)
same,GI50,Hs-578T,> 100 µM (inactive)
same,GI50,IGROV-1,> 100 µM (inactive)
same,GI50,K562,> 100 µM (inactive)
same,GI50,KM12,> 100 µM (inactive)
same,GI50,LOX IMVI,> 100 µM (inactive)
same,GI50,M14,> 100 µM (inactive)
same,GI50,MCF7,93.5 µM (inactive)
same,GI50,MDA-MB-231,> 100 µM (inactive)
same,GI50,MDA-MB-435,> 100 µM (inactive)
same,GI50,MDA-N,> 100 µM (inactive)
same,GI50,MOLT-4,> 100 µM (inactive)
same,GI50,Malme-3M,> 100 µM (inactive)
same,GI50,NCI-H226,> 100 µM (inactive)
same,GI50,NCI-H23,> 100 µM (inactive)
same,GI50,NCI-H522,80.2 µM (inactive)
same,GI50,NCI/ADR-RES,> 100 µM (inactive)
same,GI50,OVCAR-3,> 100 µM (inactive)
same,GI50,OVCAR-4,> 100 µM (inactive)
same,GI50,OVCAR-5,> 100 µM (inactive)
same,GI50,OVCAR-8,> 100 µM (inactive)
same,GI50,PC-3,> 100 µM (inactive)
same,GI50,RPMI-8226,> 100 µM (inactive)
same,GI50,SF-268,> 100 µM (inactive)
same,GI50,SF-295,> 100 µM (inactive)
same,GI50,SK-MEL-28,> 100 µM (inactive)
same,GI50,SK-MEL-2,> 100 µM (inactive)
same,GI50,SK-MEL-5,> 100 µM (inactive)
same,GI50,SK-OV-3,> 100 µM (inactive)
same,GI50,SN12C,> 100 µM (inactive)
same,GI50,SNB-19,> 100 µM (inactive)
same,GI50,SNB-75,> 100 µM (inactive)
same,GI50,SR,> 100 µM (inactive)
same,GI50,SW-620,> 100 µM (inactive)
same,GI50,TK-10,> 100 µM (inactive)
same,GI50,U-251,> 100 µM (inactive)
same,GI50,UACC-62,> 100 µM (inactive)
same,GI50,UO-31,> 100 µM (inactive)
CC(=O)OC1CCN(C(=O)c2ccccc2)CC1CC1(c2cc3ccccc3[nH]2)OCCO1 (stereo not drawn),GI50,786-0,> 100 µM (inactive)
same,GI50,A498,26.7 µM (inactive)
same,GI50,A549,50.1 µM (inactive)
same,GI50,ACHN,> 100 µM (inactive)
same,GI50,CAKI-1,> 100 µM (inactive)
same,GI50,CCRF-CEM,48.3 µM (inactive)
same,GI50,COLO 205,53.1 µM (inactive)
same,GI50,DU-145,> 100 µM (inactive)
same,GI50,EKVX,83 µM (inactive)
same,GI50,HCC 2998,47.3 µM (inactive)
same,GI50,HCT-116,72.6 µM (inactive)
same,GI50,HCT-15,48.3 µM
same,GI50,HL-60,24.2 µM (inactive)
same,GI50,HOP-62,> 100 µM (inactive)
same,GI50,HOP-92,48.9 µM (inactive)
same,GI50,HT-29,> 100 µM (inactive)
same,GI50,IGROV-1,61.2 µM (inactive)
same,GI50,K562,30.1 µM (inactive)
same,GI50,KM12,67.5 µM (inactive)
same,GI50,LOX IMVI,83.2 µM (inactive)
same,GI50,M14,83.8 µM (inactive)
same,GI50,MCF7,> 100 µM (inactive)
same,GI50,MDA-MB-231,> 100 µM (inactive)
same,GI50,MDA-MB-435,42.8 µM (inactive)
same,GI50,MDA-N,39.2 µM (inactive)
same,GI50,MOLT-4,32.2 µM (inactive)
same,GI50,Malme-3M,> 100 µM (inactive)
same,GI50,NCI-H226,> 100 µM (inactive)
same,GI50,NCI-H23,69.2 µM (inactive)
same,GI50,NCI-H522,78.9 µM (inactive)
same,GI50,NCI/ADR-RES,51.6 µM (inactive)
same,GI50,OVCAR-3,53.1 µM (inactive)
same,GI50,OVCAR-4,77.3 µM (inactive)
same,GI50,OVCAR-5,> 100 µM (inactive)
same,GI50,OVCAR-8,73.1 µM (inactive)
same,GI50,PC-3,34.9 µM (inactive)
same,GI50,RPMI-8226,22.3 µM (inactive)
same,GI50,RXF 393,> 100 µM (inactive)
same,GI50,SF-295,68.5 µM (inactive)
same,GI50,SK-MEL-28,> 100 µM (inactive)
same,GI50,SK-MEL-2,> 100 µM (inactive)
same,GI50,SK-MEL-5,44 µM (inactive)
same,GI50,SK-OV-3,> 100 µM (inactive)
same,GI50,SN12C,84.3 µM (inactive)
same,GI50,SNB-19,> 100 µM (inactive)
same,GI50,SNB-75,49.4 µM (inactive)
same,GI50,SW-620,> 100 µM (inactive)
same,GI50,T47D,34 µM (inactive)
same,GI50,TK-10,53.2 µM (inactive)
same,GI50,U-251,77.4 µM (inactive)
same,GI50,UACC-257,50 µM (inactive)
same,GI50,UACC-62,36.6 µM (inactive)
same,GI50,UO-31,29 µM (inactive)
